For data set [1], the system named is ileum preparations, acetylcholine spasm. Briefly: Spasmolytic activity on isolated ileum (Magnus), acetylcholine spasm. The settings on record: Cavia porcellus, guinea pig ileum, 37° C, acetylcholine 4×10^-7 g/ml; for IC50: read-out: ED50 Acetylcholine (spasmolytic). Further details: species or system Guinea pigs. How it is done: (§1) The method described by Magnus was employed [Therap. Grundlagen der Experimentellen Arzneimittelforschung, Wiss. Verlagsgesellschaft, Stuttgart (1965) page 241].
(§2) Guinea pigs of both sexes weighing between 200 and 500 g were killed by cervical blow. After that they were allowed to bleed and then laparotomized. About 15 cm of the distal ileum were then placed into a Krebs-Henseleit-solution at 37° C.
(§3) Ileum preparations of about 1 cm length were fixed in a special vessel containing 25 ml of the Krebs-Henseleit-solution which were percolated by a gas mixture (Carbogen) consisting of 95% oxygen and 5% carbon dioxide. The temperature of the bath was maintained at 37° C. The movements of the ileum preparations were observed by a lampblack-kymograph.
(§4) Every 10 minutes single spasms were caused with solutions of acetylcholine (4×10^-7 g/ml) barium chloride (4×10^-4 g/ml) and histamine (8×10^-6 g/ml) in the Krebs-Henseleit-solution. Five minutes after application the spasms were stopped by rinsing the ileum segments with a Krebs-Henseleit-solution which was free of spasmodics. The tested compounds were added to ther Krebs-Henseleit-solution 2 minutes after causing the spasms.

The nature of data set [2]: Acute toxicity in mice (LD50, Litchfield and Wilcoxon). To be noted: mouse, in vivo, male NRMI mice. How it is done: The acute toxicity has been determined in male mice (NRMI strain) weighing 17 to 21 g. The animals were fasted 24 hours prior to the trial. Water was offered ad libidum. The substances were administered subcutaneously and by using a gastric tube in increasing doses to groups consisting of 6 animals. The animals were observed over a period of 24 hours. The LD50 values were determined according to the method of Litchfield and Wilcoxon (Therap. Grundlagen der experimentellen Arzneimittelforschung--Ther. Fundamentals of Experimental Durg Research--1965--page 82). The findings were compiled as average values in the following tables: […]

In data set [3] the test system is histamine-spasm (bronchospasm). Briefly: Bronchospasmolytic activity (Konzett and Roessler), histamine-spasm. The data set is classed as in vivo, guinea pigs. To be noted: Cavia porcellus, iv, 2 min; guinea pig, i.v., 2 min before histamine. As for the experimental part:
(§5) The method described by Konzett and Roessler was employed (Arch.exp.Path.Pharmak. 195, 72 (1940).
(§6) Experimental animals were guinea pigs weighing between 280 and 380 g. The animals were kept under urethane narcosis (1.5 g/kg i.m.) and their chests opened. The animals received artificial respiration by means of a respiratory pump. The respiratory pressure was adjusted by a mercury manometer. Every 4 minutes a bronchospasm was caused by intravenous application (vena jugularis) of spasmodics. These were acetylcholine and histamine. Two minutes prior to the injection of a spasmodic, the substances under investigation were administered, i.e. again by intravenous injection. […] With respect to the histamine-spasm they were active in the range of […].

Data set [4] relates to acetylcholine-spasm (bronchospasm). Briefly: Bronchospasmolytic activity (Konzett and Roessler), acetylcholine-spasm. The data set is classed as in vivo, guinea pigs. The settings on record: Cavia porcellus, iv, 2 min; guinea pig, i.v., 2 min before acetylcholine; read-out: ED100 Acetyl-choline (bronchospasmolytic). How it is done:
as §5, §6

Data set [5] relates to ileum preparations, barium chloride spasm. Briefly: Spasmolytic activity on isolated ileum (Magnus), barium chloride spasm. Further details: species or system Guinea pigs. To be noted: Cavia porcellus, guinea pig ileum, 37° C, barium chloride 4×10^-4 g/ml; for IC50: read-out: ED50 Barium-Chloride (spasmolytic). How it is done:
as §1, §2, §3, §4

Data set [6] relates to ileum preparations, histamine spasm. Briefly: Spasmolytic activity on isolated ileum (Magnus), histamine spasm. Further details: species or system Guinea pigs. The settings on record: Cavia porcellus, guinea pig ileum, 37° C, histamine 8×10^-6 g/ml; for IC50: read-out: ED50 Histamine (spasmolytic). As for the experimental part: as §1, §2, §3, §4
Setting [7] is: po, w.i.g. (gastric tube), read-out: Acute Toxicity LD50, w.i.g.
The mark [8] stands for this setting: sc, subcutaneous, read-out: Acute Toxicity LD50, S.C.

These results are taken from US4294838A, “Certain heterocyclic sulfoximide derivatives” (priority 1977, dated 1981).

Values after ≈ are worked out from the molar mass of the structure shown. Read-outs that look alike come from different tables or passages of the source.

A word on the LD50: it is the dose expected to kill half of the subjects tested.

On to `C[N+](C)(C)CCCN=S(=O)(c1ccccc1)c1cccs1` (stereo not drawn) [Example 2, N-(3-trimethylammoniumpropyl)-S-phenyl-S-(2-thienyl)-sulphoximide iodide], for which, in data set [1], the IC50 was 5 µg/mL. Further, the results for the 50% lethal dose (LD50) at 24 h in data set [2] (setting [7]) and in data set [2] (setting [8]) were greater than 400 mg/kg and 300 mg/kg, respectively.
With `CCN(CC)CCN=S(=O)(c1ccccc1)c1cccnc1` (stereo not drawn) [Example 12, N-(2-Diethylaminoethyl)-S-phenyl-S-(3-pyridyl)-sulphoximide], the median lethal dose (LD50) at 24 h in data set [2] (setting [7]) was determined as 1600 mg/kg.
As to `CCN(CC)CCN=S(=O)(c1ccsc1)c1cccs1` (stereo not drawn) [Example 8, N-(2-Diethylaminoethyl)-S-(2-thienyl)-S-(3-thienyl)-sulphoximide], the results for the ED100 in data set [3] and in data set [4] were 4 mg/kg and 2 mg/kg, respectively. Moreover, the IC50 stood at 0.5 µg/mL (≈ 1.52 µM) in data set [1], 80 µg/mL (≈ 244 µM) in data set [5] and 2 µg/mL (≈ 6.09 µM) in data set [6]. For the same compound, the 50% lethal dose (LD50) at 24 h in data set [2] (setting [7]) was less than 300 mg/kg; in data set [2] (setting [8]), 250 mg/kg.
For `CCN(CC)CCN=S(=O)(c1ccccc1)c1cccs1` (stereo not drawn) [Example 1, N-(2-Diethylaminoethyl)-S-phenyl-S-(2-thienyl)-sulphoximide], the ED100 is greater than 4 mg/kg in data set [3] and 1 mg/kg in data set [4]. Further, the IC50 is 1 µg/mL (≈ 3.1 µM) in data set [1], 80 µg/mL (≈ 248 µM) in data set [5] and 5 µg/mL (≈ 15.5 µM) in data set [6]. The LD50 at 24 h in data set [2] (setting [7]) came out at 200 mg/kg; in data set [2] (setting [8]), 150 mg/kg.
As for `CCN(CC)CCN=S(=O)(c1cccs1)c1cccs1` [Example 5, N-(2-Diethylaminoethyl)-S,S-bis-(2-thienyl)-sulphoximide], the values for the ED100 in data set [3] and in data set [4] were greater than 8 mg/kg and 2 mg/kg, respectively. The IC50 in data set [1] worked out at 1 µg/mL (≈ 3.04 µM); in data set [5], 40 µg/mL (≈ 122 µM); in data set [6], 10 µg/mL (≈ 30.4 µM). The LD50 at 24 h in data set [2] (setting [7]) stood at 250 mg/kg; in data set [2] (setting [8]), 100 mg/kg.
On to `O=S(=NCCN1CCCC1)(c1ccccc1)c1cccs1` (stereo not drawn) [Example 3, N-(2-Pyrrolidinoethyl)-S-phenyl-S-(2-thienyl)-sulphoximide], for which the figures for the IC50 in data set [1] and in data set [6] were greater than 1 µg/mL and 5 µg/mL (≈ 15.6 µM), respectively. Moreover, the LD50 at 24 h in data set [2] (setting [7]) came out at 150 mg/kg.
Consider `CCN(CC)CCN=S(=O)(c1ccccc1)c1ccco1` (stereo not drawn) [Example 10, N-(2-Diethylaminoethyl)-S-(2-furyl)-S-phenyl-sulphoximide], for which the LD50 at 24 h in data set [2] (setting [7]) turned out to be 400 mg/kg; in data set [2] (setting [8]), 150 mg/kg.
For the compound `CN(C)CCCN=S(=O)(c1ccccc1)c1cccs1` (centres unmarked) [Example 2], the IC50 is greater than 1 µg/mL in data set [1], greater than 10 µg/mL in data set [5] and 50 µg/mL (≈ 162 µM) in data set [6]. Also, the results for the 50% lethal dose (LD50) at 24 h in data set [2] (setting [7]) and in data set [2] (setting [8]) were less than 800 mg/kg and 600 mg/kg, respectively.
In the case of `O=S(=NCCN1CCOCC1)(c1cccs1)c1cccs1` [Example 7, N-(2-Morpholinoethyl)-S,S-bis-(2-thienyl)-sulphoximide], the IC50 in data set [1] was found to be 4 µg/mL (≈ 11.7 µM); in data set [6] it was 40 µg/mL (≈ 117 µM). The LD50 at 24 h in data set [2] (setting [7]) amounted to 1000 mg/kg.
Regarding `CCN(CC)CCN=S(=O)(c1ccsc1)c1ccsc1` [Example 9, N-(2-Diethylaminoethyl)-S,S-bis-(3-thienyl)-sulphoximide], the ED100 in data set [3] was greater than 8 mg/kg; in data set [4], 4 mg/kg. Besides, the IC50 in data set [1] amounted to 0.25 µg/mL (≈ 0.761 µM); in data set [6], 10 µg/mL (≈ 30.4 µM). Further, the LD50 at 24 h in data set [2] (setting [7]) is greater than 30 mg/kg; in data set [2] (setting [8]), 30 mg/kg.
For `CCN(CC)CCN=S(=O)(c1ccccc1)c1ccsc1` (stereo not drawn) [Example 4, N-(2-Diethylaminoethyl)-S-phenyl-S-(3-thienyl)-sulphoximide], the ED100 in data set [3] was greater than 8 mg/kg; in data set [4] it was greater than 2 mg/kg. In addition, the IC50 is 1 µg/mL (≈ 3.1 µM) in data set [1], 40 µg/mL (≈ 124 µM) in data set [5] and 10 µg/mL (≈ 31 µM) in data set [6]. Also, the LD50 at 24 h was 200 mg/kg in data set [2] (setting [7]) and 150 mg/kg in data set [2] (setting [8]).
For `O=S(=NCCN1CCCCC1)(c1cccs1)c1cccs1` [Example 6, N-(2-Piperidinoethyl)-S,S-bis-(2-thienyl)-sulphoximide], the IC50 turned out to be 5 µg/mL (≈ 14.7 µM) in data set [1], 80 µg/mL (≈ 235 µM) in data set [5] and 10 µg/mL (≈ 29.4 µM) in data set [6]. Besides, the LD50 at 24 h in data set [2] (setting [7]) is 200 mg/kg.
Regarding `CCN(CC)CCN=S(=O)(c1ccccc1)c1ccccc1` [Sulfoxifen-Phosphate, N(2-Diethylaminoethyl)-diphenyl-sulfoximin, reference compound], the ED100 in data set [3] and in data set [4] was 4 mg/kg each time. Besides, the results for the IC100 in data set [1] ((ED100)), in data set [5] ((ED100)) and in data set [6] ((ED100)) were 1 µg/mL, 80 µg/mL and 10 µg/mL, respectively. For the same compound, the IC50 in data set [1] stood at 0.1 µg/mL (≈ 0.316 µM); in data set [5], 40 µg/mL (≈ 126 µM); in data set [6], 1 µg/mL (≈ 3.16 µM). In addition, the LD50 at 24 h came out at 180 mg/kg in data set [2] (setting [7]) and 175 mg/kg in data set [2] (setting [8]).
